Data as given in patent US20260091078A1, “OLIGOPEPTIDE THAT INHIBITS ANGIOGENESIS AND VASCULAR FUNCTION” (UNIVERSIDAD NACIONAL AUTONOMA DE MEXICO, priority 2019, published 2026).

Tests used:
[1] = tested on: immortalized bovine umbilical-vein endothelial cells (BUVEC E6E7); experiment: Proliferation of BUVEC E6E7 endothelial cells stimulated with VEGF (EdU click assay); type: cell-based; details: 100 nM, VEGF 50 ng ml^-1
Protocol: (§1) On a 96-well plate treated for cell culture, BUVEC E6E7 and HUVEC cells were seeded at a density of ˜14,000 and ˜11,000 cells cm^−2, respectively. BUVEC E6E7 cells were maintained in F12K culture media with 10% (v/v) fetal bovine serum (FBS) and the HUVEC in F12K media supplemented with 20% of FBS, 100 μg ml^−1 heparin and 25 μg ml^−1 of endothelial cell growth supplement (ECGS). After 24 hours, the cells were starved with FBS-reduced media (0.1% of FBS for BUVEC E6E7 and 0.5% for HUVEC) for 16 hours to synchronize cells in phase GO of the reproductive cycle. After this time, FBS and heparin were replenished only to HUVEC. The cells were then treated with vasoinhibin or the oligopeptide THGRGFI in concentrations ranging from 0.001 to 100 nM for 24 hours in the presence of 10 μM of the thymidine analog 5-Ethynyl-2′-deoxyuridine (EdU) and 50 ng ml^−1 VEGF for the BUVEC E6E7 or the combination of 25 ng ml^−1 VEGF and 20 ng ml^−1 bFGF for HUVEC. At the end of the experiment, cells were fixed with 4% paraformaldehyde, permeabilized with 0.5% Triton X-100 in TBS1x, and stained to detect the newly synthetized DNA by the incorporation of EdU using the “click” assay (which involves a copper catalyzed reaction to covalently bind fluorescent azide to the EDU incorporated to DNA). Total DNA was counterstained with Hoechst 33342 and the “click”-stained nuclei were quantified and plotted relative to the total number of Hoechst 33342-stained nuclei.
For the assay, BUVEC E6E7 cells were seeded at a density of ˜14′000 cells cm^−2 in a 96 well plate with F12K with 10% (v/v) FBS. After 24 hours, cells were starved with 0.1% of FBS for GO synchronization for ˜16 hours. Next, the cells were treated with the different oligopeptides in presence of 10 μM of the thymidine analog EdU and 50 ng ml^−1 of VEGF. Finally, the cells were fixed, permeabilized, and stained for the newly synthetized DNA by the EdU incorporation through the ‘click’ assay. The total DNA was stained with Hoechst 33342 and the percentage of ‘click’-stained nuclei over the total nuclei was a measure of proliferation.

[2] = tested on: human umbilical-vein endothelial cells (HUVEC); experiment: Proliferation of HUVEC stimulated with VEGF and bFGF (EdU click assay); type: cell-based; details: for dose-response effect (biological potency) on proliferation of HUVEC: different doses, 24 hours, VEGF 25 ng ml^-1 and bFGF 20 ng ml^-1
Protocol: as §1
HUVEC were seeded on a 96 well plate at a density of ˜11,000 cells cm^−2 and maintained in F12K supplemented with 20% of FBS, 100 μg ml^−1 heparin and 25 μg ml^−1 endothelial cell growth supplement (ECGS). After 24 hours, the cells were synchronized in GO with starving conditions (FBS 0.5%) for 16 hours, and after that FBS and the heparin were replenished. Cells were then treated with THGRGFI, the different oligopeptides and 123 amino acids vasoinhibin, each in a concentration of 100 nM, for 24 hours in presence or absence of 10 μM of thymidine analog 5-Ethynyl-2′-deoxyuridine (EdU) and a combination of 25 ng ml^−1 VEGF and 20 ng ml^−1 bFGF. Finally, the cells were fixed with 4% paraformaldehyde, permeabilized with 0.5% of Triton X-100 in TBS1x and stained for the newly synthetized DNA with the ‘click’ method that detects the EdU incorporation. Total DNA was stained with Hoechst 33342 and the percentage of ‘click’-stained nuclei relative to total nuclei (Hoechst 33342-stained) indicated cell proliferation.
Approximately 11,000 HUVEC cells cm^−2 were seeded on a 96 well plate in F12K media with 20% FBS, 100 μg ml^−1 heparin and 25 μg ml^−1 ECGS. After 24 hours, cells were starved with 0.5% of FBS for ˜16 hours, and after that time the FBS and heparin were added again and cells treated with different doses of the alanine substituted oligopeptides for 24 hours, in the presence of EdU and a combination of 25 ng ml^−1 VEGF and 20 ng ml^−1 bFGF. Finally, the cells were fixed, permeabilized and stained to quantify the synthesis of DNA as a sign of proliferation.

GFITKAI (Amino acids 49 to 55 of human prolactin; listed as Homo sapiens)
effect on VEGF-induced proliferation of BUVEC E6E7 at single concentration [1]: did not shown any activity

Thr His Gly Arg (THGR; Amino acids 45 to 48 of human prolactin; listed as Homo sapiens)
dose-response effect (biological potency) on proliferation of HUVEC [2]: very similar to the oligopeptide THGRGFI

GRGFITK (Amino acids 47 to 53 of human prolactin; listed as Homo sapiens)
effect on VEGF-induced proliferation of BUVEC E6E7 at single concentration [1]: significatively inhibited the VEGF-induced proliferation of endothelial cells

THIRGGF (scrambled sequence of SEQ ID NO 1) [Scr2, reference compound]
effect on proliferation of HUVEC at single concentration ([2]; 100 nM, VEGF 25 ng ml^-1 and bFGF 20 ng ml^-1, 24 hours): did not have any effect

TKAINSC (Amino acids 52 to 58 of human prolactin; listed as Homo sapiens)
effect on VEGF-induced proliferation of BUVEC E6E7 at single concentration [1]: did not shown any activity

R4A: THGRGFI with the arginine at position X4 substituted by alanine (THGAGFI)
dose-response effect (biological potency) on proliferation of HUVEC [2]: did not inhibit endothelial proliferation

His Gly Arg [HGR]
dose-response effect (biological potency) on proliferation of HUVEC [2]: very similar to the oligopeptide THGRGFI
